# Legend:
# native FIXa (human) = native FIXa (human) (Homo sapiens, UniProt P00740); assay: Determination of the dissociation constant Ki according to DIXON, native FIXa; assay type: biochemical; set-up: 0.14 μmol/l native FIXa (human); details: pH 8.5, 33% ethylene glycol; for 1/V: 0.07 μmol/l native FIXa
# Procedure: Determination of the Dissociation Constant Ki According to the Method of DIXON
# 42 mmol/l Tris-HCl, pH 8.5
# inhibitor in stepped concentrations (0, 20.4 and 40.8 μmol/l) […]
# 0.07 μmol/l native FIXa (human)
# TIPPS-(3-Am)Phe-iNip-OH was used as the inhibitor and the inhibitory effect was determined as an example for two substrates under optimal conditions (pH 8.5, 33% ethylene glycol).
# rFIXa (human) = rFIXa (human) (Homo sapiens, UniProt P00740); assay: Influence of known protease inhibitors on the activity of rFIXa; assay type: biochemical; set-up: coding for the FIX protease domain from amino acid position 181 to 415; Met (ATG start codon) (N); made in house
# Sequence of rFIXa (human) (P00740 227-461 limits assumed): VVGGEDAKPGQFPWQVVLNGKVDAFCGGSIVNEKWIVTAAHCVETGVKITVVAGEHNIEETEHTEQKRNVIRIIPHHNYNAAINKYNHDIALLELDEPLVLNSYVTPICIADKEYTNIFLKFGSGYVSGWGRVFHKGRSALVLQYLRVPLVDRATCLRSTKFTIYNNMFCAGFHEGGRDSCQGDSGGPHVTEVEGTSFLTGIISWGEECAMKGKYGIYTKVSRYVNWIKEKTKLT
# Sequence of rFIXa (human) (P00740 131-226 limits assumed): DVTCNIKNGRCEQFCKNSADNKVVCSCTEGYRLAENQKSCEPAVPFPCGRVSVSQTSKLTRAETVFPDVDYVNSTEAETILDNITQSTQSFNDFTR
# Procedure: Specific FIXa inhibitors can be identified by the inhibition of FIXa activity. For this purpose the FIXa activity is determined with a substrate of the R-D-Xxx-Gly-Arg-pNA type (Xxx=hydrophobic amino acid) in the absence and presence of the substance to be tested or of a substance mixture and the percentage inhibition is calculated from the quotients. The inhibition constant Ki is determined from the inhibition kinetics. The measurement signal is amplified by the presence of high concentrations of certain alcohols (preferably ethylene glycol).
# 200 μl buffer (100 mmol/l Tris-HCl, 100 mmol/l NaCl, 5 mmol/l CaCl2, 20-40% alcohol, pH 7-9) the buffer contains the inhibitor at various concentrations […]
# The reaction can also be terminated after 5-10 min by stopping with acetic acid (25 μl, 50%), the absorbance is determined at 405 nm against a reagent blank.
# Influence of Known Protease Inhibitors on the Activity of rFIXa Using Different pHs, Alcohols and Alcohol Concentrations 42 mmol/l Tris-HCl, pH 7.4 or 8.5 substrate MeSO2 -D-CHG-Gly-Arg-pNA (1.02 mmol/l) […]
# inhibitor at stepped concentrations (4.1-163 μmol/l)
# Known synthetic inhibitors of the 3-amidinophenylalanine type were used as inhibitors (Sturzebecher et al, J. Enzyme. Inhibition 9 (1995) 87 and WO 92/08709) (1991)). The inhibitory effect was examined at a low and at a high alcohol concentration as an example.
# Sequence of native FIXa (human) (P00740 227-461 limits assumed): as the sequence (P00740 227-461 limits assumed) above
# Sequence of native FIXa (human) (P00740 47-191 partner limits assumed): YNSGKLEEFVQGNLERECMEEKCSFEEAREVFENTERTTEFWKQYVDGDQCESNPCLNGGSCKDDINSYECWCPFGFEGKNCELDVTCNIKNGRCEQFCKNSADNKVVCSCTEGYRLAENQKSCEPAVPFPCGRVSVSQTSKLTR
smiles,measurement,setting,value
"CC(C)c1cc(C(C)C)c(S(=O)(=O)NC(Cc2cccc(C(=N)N)c2)C(=O)N2CCC(C(=O)O)CC2)c(C(C)C)c1 (stereo not shown) [TIPPS-(3-Am)Phe-iNip-OH, Nα-(2,4,6-triisopropylbenzenesulfonyl)-3-amidino-(D,L)-phenylalanine-isonipecotic acid]",1/V,"native FIXa (human); inhibitor 20.4 μmol/l, MeSO2-D-HHT-Gly-Arg-pNA 0.25 μmol/l",129 min/mA
same,1/V,"native FIXa (human); inhibitor 20.4 μmol/l, MeSO2-D-HHT-Gly-Arg-pNA 0.51 μmol/l",77.5 min/mA
same,1/V,"native FIXa (human); inhibitor 20.4 μmol/l, MeSO2-D-HHT-Gly-Arg-pNA 1.02 μmol/l",29.5 min/mA
same,1/V,"native FIXa (human); inhibitor 40.8 μmol/l, MeSO2-D-HHT-Gly-Arg-pNA 0.25 μmol/l",255 min/mA
same,1/V,"native FIXa (human); inhibitor 40.8 μmol/l, MeSO2-D-HHT-Gly-Arg-pNA 0.51 μmol/l",154 min/mA
same,1/V,"native FIXa (human); inhibitor 40.8 μmol/l, MeSO2-D-HHT-Gly-Arg-pNA 1.02 μmol/l",53.2 min/mA
same,Ki,"native FIXa (human); native FIXa, substrate MeSO2-D-HHT-Gly-Arg-pNA",9 µM
same,Inhibition of the activity of factor IXa (in %),"rFIXa (human); inhibitor 4.1 μmol/l, pH 7.4, 4.1% ethanol, 0.57 μmol/l rFIXa",89.5%
same,Inhibition of the activity of factor IXa (in %),"rFIXa (human); inhibitor 4.1 μmol/l, pH 7.4, 33% ethylene glycol, 0.057 μmol/l rFIXa",86.9%
same,Inhibition of the activity of factor IXa (in %),"rFIXa (human); inhibitor 4.1 μmol/l, pH 8.5, 4.1% ethanol, […] rFIXa",90.6%
same,Inhibition of the activity of factor IXa (in %),"rFIXa (human); inhibitor 4.1 μmol/l, pH 8.5, 33% ethylene glycol, […] rFIXa",85.6%
same,Inhibition of the activity of factor IXa (in %),"rFIXa (human); inhibitor 8.2 μmol/l, pH 7.4, 4.1% ethanol, 0.57 μmol/l rFIXa",87.6%
same,Inhibition of the activity of factor IXa (in %),"rFIXa (human); inhibitor 8.2 μmol/l, pH 7.4, 33% ethylene glycol, 0.057 μmol/l rFIXa",79.4%
same,Inhibition of the activity of factor IXa (in %),"rFIXa (human); inhibitor 8.2 μmol/l, pH 8.5, 4.1% ethanol, […] rFIXa",85.2%
same,Inhibition of the activity of factor IXa (in %),"rFIXa (human); inhibitor 8.2 μmol/l, pH 8.5, 33% ethylene glycol, […] rFIXa",72.8%
same,Inhibition of the activity of factor IXa (in %),"rFIXa (human); inhibitor 16.3 μmol/l, pH 7.4, 4.1% ethanol, 0.57 μmol/l rFIXa",76.2%
same,Inhibition of the activity of factor IXa (in %),"rFIXa (human); inhibitor 16.3 μmol/l, pH 7.4, 33% ethylene glycol, 0.057 μmol/l rFIXa",61.7%
same,Inhibition of the activity of factor IXa (in %),"rFIXa (human); inhibitor 16.3 μmol/l, pH 8.5, 4.1% ethanol, […] rFIXa",74.8%
same,Inhibition of the activity of factor IXa (in %),"rFIXa (human); inhibitor 16.3 μmol/l, pH 8.5, 33% ethylene glycol, […] rFIXa",58.0%
same,Inhibition of the activity of factor IXa (in %),"rFIXa (human); inhibitor 40.8 μmol/l, pH 7.4, 4.1% ethanol, 0.57 μmol/l rFIXa",55.8%
same,Inhibition of the activity of factor IXa (in %),"rFIXa (human); inhibitor 40.8 μmol/l, pH 7.4, 33% ethylene glycol, 0.057 μmol/l rFIXa",38.9%
same,Inhibition of the activity of factor IXa (in %),"rFIXa (human); inhibitor 40.8 μmol/l, pH 8.5, 4.1% ethanol, […] rFIXa",55.2%
same,Inhibition of the activity of factor IXa (in %),"rFIXa (human); inhibitor 40.8 μmol/l, pH 8.5, 33% ethylene glycol, […] rFIXa",33.6%
same,Inhibition of the activity of factor IXa (in %),"rFIXa (human); inhibitor 81.6 μmol/l, pH 7.4, 4.1% ethanol, 0.57 μmol/l rFIXa",36.3%
same,Inhibition of the activity of factor IXa (in %),"rFIXa (human); inhibitor 81.6 μmol/l, pH 7.4, 33% ethylene glycol, 0.057 μmol/l rFIXa",21.2%
same,Inhibition of the activity of factor IXa (in %),"rFIXa (human); inhibitor 81.6 μmol/l, pH 8.5, 4.1% ethanol, […] rFIXa",35.3%
same,Inhibition of the activity of factor IXa (in %),"rFIXa (human); inhibitor 81.6 μmol/l, pH 8.5, 33% ethylene glycol, […] rFIXa",20.7%
same,Inhibition of the activity of factor IXa (in %),"rFIXa (human); inhibitor 163 μmol/l, pH 7.4, 4.1% ethanol, 0.57 μmol/l rFIXa",23.8%
same,Inhibition of the activity of factor IXa (in %),"rFIXa (human); inhibitor 163 μmol/l, pH 7.4, 33% ethylene glycol, 0.057 μmol/l rFIXa",15.0%
same,Inhibition of the activity of factor IXa (in %),"rFIXa (human); inhibitor 163 μmol/l, pH 8.5, 4.1% ethanol, […] rFIXa",20.8%
same,Inhibition of the activity of factor IXa (in %),"rFIXa (human); inhibitor 163 μmol/l, pH 8.5, 33% ethylene glycol, […] rFIXa",15.8%

# Source: patent publication US6087119A, “Method for determining the catalytic activity of factor IXa” (Roche Diagnostics GmbH, priority 1996, dated 2000)
